Data published in patent US20100029619A1, “FUSED HETEROCYCLIC COMPOUND” (TAKEDA PHARMACEUTICAL COMPANY LIMTED, priority 2006, published 2010).

| Structure (SMILES) | melting point |
| --- | --- |
| CC(C)(c1ccc(C(=O)Nc2cn3cc(Cl)ccc3n2)cc1)c1nnn[nH]1 [Example 39, N-(6-chloroimidazo[1,2-a]pyridin-2-yl)-4-[1-methyl-1-(1H-tetrazol-5-yl)ethyl]benzamide] | 266 to 267 °C |
| CC(C)(c1ccc(C(=O)Nc2cn3cc(Cl)ccc3n2)cc1)c1noc(=O)[nH]1 [Example 40, N-(6-chloroimidazo[1,2-a]pyridin-2-yl)-4-[1-methyl-1-(5-oxo-4,5-dihydro-1,2,4-oxadiazol-3-yl)ethyl]benzamide] | 310 to 312 °C |
| CC(C)(CCC#N)c1ccc(C(=O)Nc2cn3cc(-n4ccnc4)ccc3n2)cc1 [Example 45, 4-(3-cyano-1,1-dimethylpropyl)-N-[6-(1H-imidazol-1-yl)imidazo[1,2-a]pyridin-2-yl]benzamide] | 233 to 234 °C |
| CC(C)(CCc1nnn[nH]1)c1ccc(C(=O)Nc2cn3cc(-n4ccnc4)ccc3n2)cc1 [Example 46, 4-[1,1-dimethyl-3-(1H-tetrazol-5-yl)propyl]-N-[6-(1H-imidazol-1-yl)imidazo[1,2-a]pyridin-2-yl]benzamide] | 266 to 267 °C |
| CC(C)(C)c1ccc(C(=O)Nc2cn3c(ccc4ccccc43)n2)cc1 [Example 50, 4-tert-butyl-N-(imidazo[1,2-a]quinolin-3-yl)benzamide] | 204 to 205 °C |
| Cc1c(NC(=O)c2ccc(C(C)(C)C)cc2)nc2ccc(Cl)nn12 [Example 55, 4-tert-butyl-N-(6-chloro-3-methylimidazo[1,2-b]pyridazin-2-yl)benzamide] | 269 to 270 °C |
| Cc1c(NC(=O)c2ccc(C(C)(C)C)cc2)nc2ccc(-n3ccnc3)nn12 [Example 56, 4-tert-butyl-N-[6-(1H-imidazol-1-yl)-3-methylimidazo[1,2-b]pyridazin-2-yl]benzamide] | 302 to 303 °C |
| CC(C)(C)c1ccc(C(=O)Nc2cn3cc(-c4ccncc4)ccc3n2)cc1 [Example 59, 4-tert-butyl-N-[6-(pyridin-4-yl)imidazo[1,2-a]pyridin-2-yl]benzamide] | 293 to 294 °C |
| CN(C)c1ccc(C(=O)Nc2cn3cc(-n4ccnc4)ccc3n2)cc1 [Example 85, 4-dimethylamino-N-[6-(1H-imidazol-1-yl)imidazo[1,2-a]pyridin-2-yl]benzamide] | 247 to 248 °C |
| CC(C)(C)c1ccc(C(=O)Nc2cn3cc(-n4ccnc4)ccc3n2)cn1 [Example 86, 6-tert-butyl-N-[6-(1H-imidazol-1-yl)imidazo[1,2-a]pyridin-2-yl]nicotinamide] | 242 to 245 °C |
| O=C(Nc1cn2cc(-n3ccnc3)ccc2n1)c1ccc(-c2ncc[nH]2)cc1 [Example 88, 4-(1H-imidazol-2-yl)-N-[6-(1H-imidazol-1-yl)imidazo[1,2-a]pyridin-2-yl]benzamide] | 276 to 279 °C (dec.) |
| O=C(Nc1cn2cc(-n3ccnc3)ccc2n1)c1ccc(-c2ccoc2)cc1 [Example 89, 4-(3-furyl)-N-[6-(1H-imidazol-1-yl)imidazo[1,2-a]pyridin-2-yl]benzamide] | 261 to 263 °C |
| CC(C)(CO)c1ccc(C(=O)Nc2cn3cc(Cl)ccc3n2)cc1 [Example 90, N-[6-chloroimidazo[1,2-a]pyridin-2-yl]-4-(2-hydroxy-1,1-dimethylethyl)benzamide] | 240 to 242 °C |
| CC(C)(CN)c1ccc(C(=O)Nc2cn3cc(Cl)ccc3n2)cc1 [Example 94, 4-(2-amino-1,1-dimethylethyl)-N-(6-chloroimidazo[1,2-a]pyridin-2-yl)benzamide] | 245 to 247 °C |
| O=C(Nc1cn2cc(Cl)ccc2n1)c1ccc(-n2cccn2)cc1 [Example 95, N-(6-chloroimidazo[1,2-a]pyridin-2-yl)-4-(1H-pyrazol-1-yl)benzamide] | 287 to 289 °C |
| CC(C)c1ccc(C(=O)Nc2cn3cc(-n4ccnc4)ccc3n2)cc1 [Example 97, N-[6-(1H-imidazol-1-yl)imidazo[1,2-a]pyridin-2-yl]-4-isopropylbenzamide] | 291 to 293 °C |
| CC(C)(C)c1ccc(C(=O)Nc2cn3cc(-c4cnco4)ccc3n2)cn1 [Example 100, 6-tert-butyl-N-[6-(1,3-oxazol-5-yl)imidazo[1,2-a]pyridin-2-yl]nicotinamide] | 251 to 253 °C |
| CC(C)(C)c1ccc(C(=O)Nc2cn3cc(-c4cccnc4)ccc3n2)cn1 [Example 102, 6-tert-butyl-N-(6-(pyridin-3-yl)imidazo[1,2-a]pyridin-2-yl)nicotinamide] | 272 to 274 °C |
| CC(C)(CO)c1ccc(C(=O)Nc2cn3cc(-n4ccnc4)ccc3n2)cc1 [Example 103, 4-(2-hydroxy-1,1-dimethylethyl)-N-[6-(1H-imidazol-1-yl)imidazo[1,2-a]pyridin-2-yl]benzamide] | 278 to 280 °C |
| Cn1cc(-c2ccc3nc(NC(=O)c4ccc(C(C)(C)C)nc4)cn3c2)cn1 [Example 105, 6-tert-butyl-N-[6-(1-methyl-1H-pyrazol-4-yl)imidazo[1,2-a]pyridin-2-yl]nicotinamide] | 228 to 230 °C |
| COc1ccc(-c2ccc3nc(NC(=O)c4ccc(C(C)(C)C)cc4)cn3c2)cn1 [Example 106, 4-tert-butyl-N-[6-(6-methoxypyridin-3-yl)imidazo[1,2-a]pyridin-2-yl]benzamide] | 245 to 247 °C |
| CS(=O)(=O)Nc1ccc(C(=O)Nc2cn3cc(Cl)ccc3n2)cc1 [Example 110, N-(6-chloroimidazo[1,2-a]pyridin-2-yl)-4-[(methylsulfonyl)amino]benzamide] | 293 to 295 °C |
| CC(C)(C)c1ccc(C(=O)Nc2cn3cc(-c4cn[nH]c4)ccc3n2)cn1 [Example 114, 6-tert-butyl-N-[6-(1H-pyrazol-4-yl)imidazo[1,2-a]pyridin-2-yl]nicotinamide] | 238 to 240 °C |
| CC(C)(CC(=O)O)c1ccc(C(=O)Nc2cn3cc(Cl)ccc3n2)cc1 [Example 117, 3-(4-{[(6-chloroimidazo[1,2-a]pyridin-2-yl)amino]carbonyl}phenyl)-3-methylbutanoic acid] | 304 to 306 °C (dec.) |
| CC(C)(CCC(=O)O)c1ccc(C(=O)Nc2cn3cc(Cl)ccc3n2)cc1 [Example 118, 4-(4-{[(6-chloroimidazo[1,2-a]pyridin-2-yl)amino]carbonyl}phenyl)-4-methylpentanoic acid] | 309 to 311 °C (dec.) |
| CC(=O)NCC(C)(C)c1ccc(C(=O)Nc2cn3cc(Cl)ccc3n2)cc1 [Example 122, 4-[2-(acetylamino)-1,1-dimethylethyl]-N-(6-chloroimidazo[1,2-a]pyridin-2-yl)benzamide] | 220 to 222 °C |
| CCC(=O)NCC(C)(C)c1ccc(C(=O)Nc2cn3cc(Cl)ccc3n2)cc1 [Example 126, N-(6-chloroimidazo[1,2-a]pyridin-2-yl)-4-[1,1-dimethyl-2-(propionylamino)ethyl]benzamide] | 225 to 227 °C |
| CCNC(=O)C(C)(C)c1ccc(C(=O)Nc2cn3cc(Cl)ccc3n2)cc1 [Example 127, N-(6-chloroimidazo[1,2-a]pyridin-2-yl)-4-[2-(ethylamino)-1,1-dimethyl-2-oxoethyl]benzamide] | 228 to 230 °C |

The remaining lines, values ahead:

| melting point | Structure (SMILES) |
| --- | --- |
| 230 to 231 °C | CC(C)(C)c1ccc(C(=O)Nc2cn3ccccc3n2)cc1 [Example 54, 4-tert-butyl-N-(imidazo[1,2-a]pyridin-2-yl)benzamide] |
| 258 to 259 °C | CC(C)(C)c1ccc(C(=O)Nc2cn3cc(-c4ccoc4)ccc3n2)cc1 [Example 61, 4-tert-butyl-N-[6-(3-furyl)imidazo[1,2-a]pyridin-2-yl]benzamide] |
| 279 to 280 °C | CC(C)(C)c1ccc(C(=O)Nc2cn3cc(-c4ccc[nH]4)ccc3n2)cc1 [Example 62] |
| 274 to 275 °C | CC(C)(C)c1ccc(C(=O)Nc2cn3cc(-n4cccc4)ccc3n2)cc1 [Example 64, 4-tert-butyl-N-[6-(1H-pyrrol-1-yl)-imidazo[1,2-a]pyridin-2-yl]benzamide] |
| 204 to 205 °C | Cc1cccc2nc(NC(=O)c3ccc(C(C)(C)C)cc3)cn12 [Example 65, 4-tert-Butyl-N-(5-methylimidazo[1,2-a]pyridin-2-yl)benzamide] |
| 249 to 250 °C | CC(O)c1ccc2nc(NC(=O)c3ccc(C(C)(C)C)cc3)cn2c1 (stereo not drawn) [Example 71, 4-tert-butyl-N-[6-(1-hydroxyethyl)imidazo[1,2-a]pyridin-2-yl]benzamide] |
| 300 to 301 °C | CC(C)(C)c1ccc(C(=O)Nc2cn3cc(-c4ncc[nH]4)ccc3n2)cc1 [Example 73, 4-tert-butyl-N-[6-(1H-imidazol-2-yl)imidazo[1,2-a]pyridin-2-yl]benzamide] |
| 265 to 266 °C | CC(C)(C)c1ccc(C(=O)Nc2cn3cc(-c4cnco4)ccc3n2)cc1 [Example 74, 4-tert-butyl-N-[6-(1,3-oxazol-5-yl)imidazo[1,2-a]pyridazin-2-yl]benzamide] |
| 297 to 298 °C | CC(C)(C)c1ccc(C(=O)Nc2cn3cc(-c4cnc[nH]4)ccc3n2)cc1 [Example 76, 4-tert-butyl-N-[6-(1H-imidazol-5-yl)imidazo[1,2-a]pyridin-2-yl]benzamide] |
| 300 to 301 °C | CC(C)(C)c1ccc(C(=O)Nc2cn3cc(C#N)ccc3n2)cc1 [Example 78, 4-tert-butyl-N-[6-cyanoimidazo[1,2-a]pyridin-2-yl]benzamide] |
| 236 to 237 °C | CN(C)Cc1ccc2nc(NC(=O)c3ccc(C(C)(C)C)cc3)cn2c1 [Example 80, 4-tert-butyl-N-[6-(dimethylaminomethyl)imidazo[1,2-a]pyridin-2-yl]benzamide] |
| 235 to 237 °C | CC(C)(N)c1ccc(C(=O)Nc2cn3cc(Cl)ccc3n2)cc1 [Example 92, 4-(1-amino-1-methylethyl)-N-(6-chloroimidazo[1,2-a]pyridin-2-yl)benzamide] |
| 273 to 275 °C | CC(C)(C)c1ccc(C(=O)Nc2cn3cc(-c4cccs4)ccc3n2)cc1 [Example 107, 4-tert-butyl-N-[6-(2-thienyl)imidazo[1,2-a]pyridin-2-yl]benzamide] |
| 261 to 263 °C | CC(C)(C)c1ccc(C(=O)Nc2cn3cc(-c4ccsc4)ccc3n2)cc1 [Example 108, 4-tert-butyl-N-[6-(3-thienyl)imidazo[1,2-a]pyridin-2-yl]benzamide] |
